Like-named read-outs stand apart in the source and are kept apart here.
Tests used:
lung cancer (H-460) = assay: MTT cytotoxicity assay, H-460; type: cell-based; conditions: Homo sapiens, NCI-H460; H-460, MTT, 72 h; read-out: Antiproliferative Activity IC50 ± SEM, H-460
[1] = test system: pancreatic cancer (PaCa-2); assay: MTT cytotoxicity assay, PaCa-2; type: cell-based; conditions: PaCa-2, MTT, 72 h; read-out: Antiproliferative Activity IC50 ± SEM, PaCa-2
[2] = test system: pancreatic ductal cancer (Panc-1); assay: MTT cytotoxicity assay, Panc-1; type: cell-based; conditions: Homo sapiens; Panc-1, MTT, 72 h; read-out: Antiproliferative Activity IC50 ± SEM, Panc-1
[3] = test system: human malignant melanoma (A375); assay: MTT cytotoxicity assay, A375; type: cell-based; conditions: Homo sapiens, A-375, 72 h, read-out: Antiproliferative Activity IC50 ± SEM, A375
[4] = Cell viability % (MTT, normal cell line); conditions: human, MRC5 normal fetal lung fibroblast cells
[5] = test system: human colon cancer (HT-29); assay: MTT cytotoxicity assay, HT-29; type: cell-based; conditions: Homo sapiens; HT-29, MTT, 72 h; read-out: Antiproliferative Activity IC50 ± SEM, HT-29
[6] = target: T1, human recombinant sPLA2-V (Homo sapiens, UniProt P39877); assay: Secretory PLA2-V activity assay (Ellman's photometric method)
T1 sequence (P39877 21-138): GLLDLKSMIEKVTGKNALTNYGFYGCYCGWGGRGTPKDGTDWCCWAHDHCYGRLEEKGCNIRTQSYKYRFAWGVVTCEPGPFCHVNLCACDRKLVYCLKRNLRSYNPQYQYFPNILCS

human recombinant COX-2 = target: T2, human recombinant COX-2 (Homo sapiens, UniProt P35354); assay: Cyclooxygenase assay (PGE2 quantification), COX-2; type: biochemical; conditions: mean ± SD; n = 3
T2 construct: purchased Cayman Chemicals
T2 sequence (P35354 18-604): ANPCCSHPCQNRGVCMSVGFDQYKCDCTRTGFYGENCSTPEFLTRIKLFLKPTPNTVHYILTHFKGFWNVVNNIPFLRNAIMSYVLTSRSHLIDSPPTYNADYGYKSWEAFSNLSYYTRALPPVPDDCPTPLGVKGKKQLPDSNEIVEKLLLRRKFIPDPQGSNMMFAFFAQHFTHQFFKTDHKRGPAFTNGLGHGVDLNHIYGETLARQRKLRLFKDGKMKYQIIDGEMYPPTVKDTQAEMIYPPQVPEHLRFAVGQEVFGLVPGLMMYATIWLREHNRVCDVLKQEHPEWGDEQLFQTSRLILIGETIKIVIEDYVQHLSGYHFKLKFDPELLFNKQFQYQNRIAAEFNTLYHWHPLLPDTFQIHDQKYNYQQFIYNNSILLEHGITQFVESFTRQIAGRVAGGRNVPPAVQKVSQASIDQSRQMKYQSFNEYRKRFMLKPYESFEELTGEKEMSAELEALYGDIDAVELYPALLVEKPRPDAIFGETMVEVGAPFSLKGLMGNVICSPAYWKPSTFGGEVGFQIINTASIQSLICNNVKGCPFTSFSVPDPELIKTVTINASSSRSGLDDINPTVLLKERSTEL

Sheep-derived COX-1 = target: T3, Sheep-derived COX-1 (Ovis aries, UniProt P05979); assay: Cyclooxygenase assay (PGE2 quantification), COX-1
T3 sequence (P05979 25-600): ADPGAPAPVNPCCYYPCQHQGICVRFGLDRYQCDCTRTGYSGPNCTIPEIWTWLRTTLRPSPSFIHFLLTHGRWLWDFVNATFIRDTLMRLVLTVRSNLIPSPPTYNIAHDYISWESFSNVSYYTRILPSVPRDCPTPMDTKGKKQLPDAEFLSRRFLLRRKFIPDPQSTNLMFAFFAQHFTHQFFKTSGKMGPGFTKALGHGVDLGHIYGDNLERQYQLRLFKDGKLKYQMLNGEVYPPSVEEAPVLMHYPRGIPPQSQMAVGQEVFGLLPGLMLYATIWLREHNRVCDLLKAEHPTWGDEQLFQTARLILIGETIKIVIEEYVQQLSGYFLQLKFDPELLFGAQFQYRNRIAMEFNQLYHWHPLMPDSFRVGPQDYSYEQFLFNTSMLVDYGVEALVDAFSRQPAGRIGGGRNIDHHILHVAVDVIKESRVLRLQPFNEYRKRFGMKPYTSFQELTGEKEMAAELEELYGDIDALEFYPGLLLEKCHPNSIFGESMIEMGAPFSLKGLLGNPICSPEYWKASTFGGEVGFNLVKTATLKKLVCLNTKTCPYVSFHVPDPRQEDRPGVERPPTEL

TNF-α = assay: ELISA, LPS-induced TNF-α release in RAW264.7 macrophages; type: cell-based, mouse; conditions: for inhibition at 10 µM: Mus musculus, RAW264.7, RAW 264.7, compound 10 µM for 2 h, then LPS 0.5 µg/mL for 22 h; for Relative Amount of LPS (TNF-α): RAW 264.7, compound 10 µM, TNF-α relative to LPS control = 100
IL-6 = assay: ELISA, LPS-induced IL-6 release in RAW264.7 macrophages; type: cell-based, mouse; conditions: for inhibition at 10 µM: Mus musculus, RAW264.7, RAW 264.7, compound 10 µM for 2 h, then LPS 0.5 µg/mL for 22 h; for Relative Amount of LPS (IL-6): RAW 264.7, compound 10 µM, IL-6 relative to LPS control = 100
EGFR = target: T4, EGFR (Homo sapiens, UniProt P00533); assay: EGFR kinase inhibition assay (EGFR Kinase Assay Kit); type: biochemical; conditions: triplicates; read-out: EGFR Inhibition IC50 ± SEM
T4 construct: purchased PBS Bioscience (so in the source)
T4 sequence (P00533 25-1210): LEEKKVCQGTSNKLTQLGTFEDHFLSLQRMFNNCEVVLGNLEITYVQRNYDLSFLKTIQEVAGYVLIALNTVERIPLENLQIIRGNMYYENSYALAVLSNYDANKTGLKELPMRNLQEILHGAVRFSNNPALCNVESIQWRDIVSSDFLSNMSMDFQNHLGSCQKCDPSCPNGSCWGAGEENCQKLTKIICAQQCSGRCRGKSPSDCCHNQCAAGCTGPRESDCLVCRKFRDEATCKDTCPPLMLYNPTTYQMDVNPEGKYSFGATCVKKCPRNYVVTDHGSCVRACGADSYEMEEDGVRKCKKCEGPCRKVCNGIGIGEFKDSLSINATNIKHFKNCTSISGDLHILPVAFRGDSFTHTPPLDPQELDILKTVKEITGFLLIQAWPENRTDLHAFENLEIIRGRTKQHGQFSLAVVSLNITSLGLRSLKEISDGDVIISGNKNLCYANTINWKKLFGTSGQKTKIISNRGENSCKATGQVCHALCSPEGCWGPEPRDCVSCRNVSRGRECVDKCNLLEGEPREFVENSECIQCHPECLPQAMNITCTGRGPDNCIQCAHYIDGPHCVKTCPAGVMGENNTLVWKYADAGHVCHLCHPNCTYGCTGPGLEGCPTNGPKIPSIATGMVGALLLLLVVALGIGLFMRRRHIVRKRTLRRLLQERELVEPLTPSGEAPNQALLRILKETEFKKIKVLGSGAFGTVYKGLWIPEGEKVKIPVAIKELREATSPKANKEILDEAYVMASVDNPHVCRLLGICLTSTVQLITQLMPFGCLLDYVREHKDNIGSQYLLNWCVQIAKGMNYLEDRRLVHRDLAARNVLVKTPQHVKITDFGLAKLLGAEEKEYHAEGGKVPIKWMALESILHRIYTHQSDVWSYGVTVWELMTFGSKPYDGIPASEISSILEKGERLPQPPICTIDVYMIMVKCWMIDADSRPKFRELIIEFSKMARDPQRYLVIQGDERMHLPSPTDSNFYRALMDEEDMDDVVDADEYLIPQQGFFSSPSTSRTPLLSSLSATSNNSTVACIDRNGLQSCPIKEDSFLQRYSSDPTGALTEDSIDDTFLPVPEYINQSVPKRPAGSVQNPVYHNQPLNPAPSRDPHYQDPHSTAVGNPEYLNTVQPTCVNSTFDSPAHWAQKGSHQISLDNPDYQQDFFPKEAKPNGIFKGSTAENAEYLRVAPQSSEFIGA

Structure (SMILES) | IC50 [6] [µM] | IC50 (human recombinant COX-2) [µM] | IC50 (Sheep-derived COX-1) [µM] | IC50 (EGFR) [µM] | IC50 (lung cancer (H-460)) [µM] | IC50 [1] [µM] | IC50 [2] [µM] | IC50 [3] [µM] | viability at 72 h [4] [%] | IC50 [5] [µM] | inhibition at 10 µM (TNF-α) [%] | Relative Amount of LPS (TNF-α) (TNF-α) | inhibition at 10 µM (IL-6) [%] | Relative Amount of LPS (IL-6) (IL-6) | IC50 ([6]; read-out: sPLA2-V IC50, mean ± SD, n = 3) [µM]
CC(=O)c1cccc(/N=N/c2ccc(O)cc2)c1 [Compound A1] |  |  |  |  | 7.4 ± 2.2 | 8.6 ± 1.2 | 9.1 ± 1.8 | 9.3 ± 1.9 | 80.3 ± 1.6 | 8.3 ± 2.1 |  |  |  |  | 
CC(=O)c1cccc(/N=N/c2ccc(O)cc2O)c1 [Compound A2, (E)-1-(3-((2,4-Dihydroxyphenyl)daizenyl)phenyl)ethan-1-one] | 7.25 ± 1.24 | 27.9 ± 1.65 | 22.2 ± 2.45 |  | 5.9 ± 2.4 | 9.6 ± 1.5 | 9.6 ± 2 | 8.4 ± 2.1 | 90.4 ± 1.9 | 9.2 ± 2.5 |  |  |  |  | 
CC(=O)c1cccc(/N=N/c2ccc(O)c(C(=O)O)c2)c1 [Compound A3, (E)-5-((3-Acetylphenyl)diazenyl)-2-hydroxybenzoic acid] | 2.14 ± 0.94 | 2.4 ± 0.8 | 0.21 ± 0.07 | 4.3 ± 0.7 | 1.8 ± 0.4 | 2.4 ± 1.5 | 2.2 ± 0.9 | 4 ± 1.5 | 79.6 ± 4.5 | 1.8 ± 0.5 | 79 | 21 | 72 | 28 | 
CC(=O)c1cccc(/N=N/c2ccc(O)c3ccccc23)c1 [Compound A4, (E)-1-(3-((4-Hydroxynaphthalen-1-yl)diazenyl)phenyl)ethan-1-one] | 14.1 ± 1.52 | 16.8 ± 2.43 | 11.1 ± 1.05 | 3.2 ± 0.8 | 3.4 ± 1 | 2 ± 0.6 | 2 ± 0.4 | 4.4 ± 1.9 | 87.4 ± 1.7 | 2.7 ± 0.6 | 49 | 51 | 46 | 54 | 
CC(=O)c1cccc(/N=N/c2c(O)ccc3ccccc23)c1 [Compound A5, (E)-1-(3-((2-Hydroxynaphthalen-1-yl)diazenyl)phenyl)ethan-1-one] | 4.24 ± 1.16 | 14.2 ± 1.79 | 9.23 ± 1.64 |  | 9.2 ± 1.2 | 10.5 ± 1.9 | 9.6 ± 1.8 | 9.6 ± 2.4 | 88.2 ± 1.2 | 11.9 ± 2.5 |  |  |  |  | 
CC(=O)c1cccc(/N=N/c2ccc(O)c3ncccc23)c1 [Compound A6, (E)-1-(3-((8-Hydroxyquinolin-5-yl)diazenyl)phenyl)ethan-1-one] | 7.42 ± 1.41 | 5.21 ± 1.2 | 4.85 ± 1.2 |  | 8.8 ± 2.3 | 9.5 ± 1.9 | 6.9 ± 2.1 | 9.5 ± 1.5 | 82.5 ± 1.7 | 7.6 ± 1.4 |  |  |  |  | 
C[C@@H]1C[C@H]2[C@@H]3CCC4=CC(=O)C=C[C@]4(C)[C@@]3(F)[C@@H](O)C[C@]2(C)[C@@]1(O)C(=O)CO [Dexamethasone, reference compound] |  |  |  |  |  |  |  |  |  |  |  |  |  |  | 0.57 ± 0.06
C#Cc1cccc(Nc2ncnc3cc(OCCOC)c(OCCOC)cc23)c1 [Erlotinib, reference compound] |  |  |  |  | 0.04 ± 0.02 | 0.06 ± 0.04 | 0.05 ± 0.02 | 4.14 ± 1.2 |  | 0.07 ± 0.04 |  |  |  |  | 

Now from value to compound, other results behind:

IC50 [6] [µM] | IC50 (human recombinant COX-2) [µM] | IC50 (Sheep-derived COX-1) [µM] | IC50 (EGFR) [µM] | Structure (SMILES) | IC50 (lung cancer (H-460)) [µM] | IC50 [1] [µM] | IC50 [2] [µM] | IC50 [3] [µM] | viability at 72 h [4] [%] | IC50 [5] [µM] | inhibition at 10 µM (TNF-α) [%] | Relative Amount of LPS (TNF-α) (TNF-α) | inhibition at 10 µM (IL-6) [%] | Relative Amount of LPS (IL-6) (IL-6) | IC50 ([6]; read-out: sPLA2-V IC50, mean ± SD, n = 3) [µM]
24.7 ± 1.59 | 29.4 ± 1.73 | 7.52 ± 1.42 | 5.8 ± 1.1 | O=C(/C=C/c1ccc(F)cc1)c1cccc(/N=N/c2ccc(O)cc2)c1 [Compound C7, (E)-3-(4-Fluorophenyl)-1-(3-((E)-(4-hydroxyphenyl)diazenyl)phenyl) prop-2-en-1-one] | 5 ± 1.4 | 2.9 ± 1.7 | 4.8 ± 1.6 | 5.3 ± 1.5 | 82.6 ± 1.2 | 4.5 ± 1.7 |  |  |  |  | 
14.2 ± 1.32 | 32.1 ± 1.4 | 5.14 ± 1.27 | 4.9 ± 0.9 | O=C(/C=C/c1ccc(F)cc1)c1cccc(/N=N/c2ccc(O)cc2O)c1 [Compound C8, (E)-1-(3-((E)-(2,4-Dihydroxyphenyl)diazenyl)phenyl)-3-(4-fluorophenyl) prop-2-en-1-one] | 2.2 ± 0.5 | 2.8 ± 0.6 | 1.9 ± 0.7 | 2.6 ± 0.5 | 83.5 ± 1.2 | 2.5 ± 7 |  |  |  |  | 
2.74 ± 1.24 | 1.27 ± 0.3 | 8.57 ± 1.89 | 0.8 ± 0.3 | O=C(/C=C/c1ccc(F)cc1)c1cccc(/N=N\c2ccc(O)c(C(=O)O)c2)c1 [Compound C9, 5. -((Z)-(3-((E)-3-(4-Fluorophenyl)acryloyl)phenyl)diazenyl)-2-hydroxybenzoic acid] | 1.2 ± 0.2 | 2.1 ± 0.3 | 1.8 ± 0.4 | 3.2 ± 1.1 | 90.2 ± 4.1 | 1.2 ± 0.3 | 74 | 26 | 77 | 23 | 
5.06 ± 1.2 | 19.2 ± 1.52 | 18.3 ± 1.27 |  | CN(C)c1ccc(/C=C/C(=O)c2cccc(/N=N/c3ccc(O)cc3)c2)cc1 [Compound C13, (E)-3-(4-(Dimethylamino)phenyl)-1-(3-((E)-(4-hydroxyphenyl)diazenyl)phenyl)prop-2-en-1-one] | 6.6 ± 1.2 | 7.4 ± 1.7 | 8.7 ± 1.4 | 8.4 ± 1.5 | 90.6 ± 1.7 | 7.8 ± 1.8 |  |  |  |  | 
7.04 ± 1.29 | 5.14 ± 1.1 | 11.5 ± 1.2 |  | CN(C)c1ccc(/C=C/C(=O)c2cccc(/N=N/c3ccc(O)cc3O)c2)cc1 [Compound C14, (E)-1-(3-((E)-(2,4-Dihydroxyphenyl)diazenyl)phenyl)-3-(4-(dimethylamino)phenyl) prop-2-en-1-one] | 5.2 ± 1.3 | 5.9 ± 1.9 | 4.6 ± 1.7 | 4.9 ± 1.6 | 89.4 ± 2.1 | 6.5 ± 1.4 |  |  |  |  | 
9.45 ± 1.67 | 5.29 ± 1.1 | 49.1 ± 2.69 |  | CN(C)c1ccc(/C=C/C(=O)c2cccc(/N=N\c3c(O)ccc4ccccc34)c2)cc1 [Compound C17, (E)-3-(4-(dimethylamino)phenyl)-1-(3-((Z)-(2-hydroxynaphthalen-1-yl)diazenyl)phenyl) prop-2-en-1-one] | 5.6 ± 2.1 | 7.5 ± 1.9 | 2.5 ± 1.2 | 8.8 ± 2.5 | 87.2 ± 1.4 | 9.2 ± 1.6 |  |  |  |  | 
8.29 ± 0.88 | 3.2 ± 0.6 | 40.2 ± 3.42 |  | CN(C)c1ccc(/C=C/C(=O)c2cccc(/N=N\c3ccc(O)c4ncccc34)c2)cc1 [Compound C18, (E)-3-(4-(dimethylamino)phenyl)-1-(3-((Z)-(8-hydroxyquinolin-5-yl)diazenyl)phenyl) prop-2-en-1-one] | 6.3 ± 1.4 | 6.4 ± 1.5 | 6.4 ± 0.4 | 8.8 ± 2.5 | 88.4 ± 2.9 | 6.7 ± 0.6 | 71 | 29 | 73 |  | 

From PMC8876975, “EGFR and COX-2 Dual Inhibitor: The Design, Synthesis, and Biological Evaluation of Novel Chalcones” (Molecules, 2022)
